Usually melting point stands for the temperature, or range, at which the solid turns liquid.

Turning to `CCc1ncc(CCCOc2c(C)cc(-c3noc(C(F)F)n3)cc2C)s1`, the melting point fell in the range of 68 to 70 °C.

Molecule `CCOc1ccc2c(c1)C(C)(c1cc(C(=O)N3CCN(C)CC3)ccc1Cl)C(=O)N2S(=O)(=O)c1ccc(C(=O)NC(C)(C)C)cc1OC` (centres undefined) had a melting point of 96 °C.

For `COC(=O)c1cc(C2CO2)cc([N+](=O)[O-])c1` (centres undefined), the melting point lay in the range of 59 to 60 °C.

In turn, `O=C(CCl)NNC1=Nc2ccc(Cl)cc2N(c2ccccc2)C(=O)C1` came in with a melting point of 210 to 215 °C.

`CN(C)c1ccc(-c2cccc(OC3SCC(O)C(O)C3O)c2)cn1` (centres undefined) yielded a melting point of 119 °C.

For `O[C@@H](CNCCOc1ccc2cc(-c3ccon3)oc2c1)COc1ccccc1`, the melting point fell in the range of 107 to 110 °C.

Consider `CC(=O)Oc1c(C(C)(C)C)cc2c(c1C(C)(C)C)CC(C)(C)O2`, for which the melting point was 97.7 °C.

`COc1cc(OC)nc(Oc2cc(C)nc(-c3ccccc3)c2C(=O)O)n1` displayed a melting point of 277 to 284 °C.

Molecule `CC(C)Sc1cc(SC(C)C)c2ccc3c(SC(C)C)cc(SC(C)C)c4ccc1c2c43` had a melting point of 108 °C.

With `CCCCCN1C(=O)C(O)(c2cc3c(cc2O)OCO3)c2ccncc21` (centres undefined), the melting point lay within 193 to 195 °C.

Take `C=Cc1c(N=C2NCCN2)cccc1OC`: the melting point was 126 °C.

Consider `COc1cc(C=O)cc(OC)c1O[Si](C)(C)C(C)(C)C`, for which the melting point is 68 °C.

Regarding `CC(=O)ONC(=O)N1CCC(=Cc2cc(C(C)(C)C)c(O)c(C(C)(C)C)c2)C1=O`, the melting point is 165 to 166 °C.

In turn, `C=CCCCOc1ccc(-c2ccc([N+](=O)[O-])cc2)cc1` had a melting point of 74 to 76 °C.

`CC(=O)c1c(C)[nH]c(CC(C)C)c1C` gave a melting point of 150 to 152 °C.

For the molecule `CC(=O)N(C)c1cccc2c1nc(-c1c(F)cccc1F)n2Cc1c(F)cccc1F`, the melting point was 155 to 156 °C.

Take `CCCC(NS(=O)(=O)c1ccc(NC(C)=O)cc1)P(=O)(Oc1ccccc1)Oc1ccccc1` (centres undefined): the melting point was in the range of 183 to 186 °C.

`Cc1ccc2[nH]c(-c3ccc(S(C)(=O)=O)cc3)c(-c3ccccc3)c2c1`: the melting point was in the range of 245 to 247 °C.

In turn, `COc1cc(Nc2c(C#N)cnc3c2sc2ccccc23)c(Cl)cc1Cl` displayed a melting point of 234 to 236 °C.

In the case of `COc1cccc(-c2cc(C(C)(C)C)c(O)c(C(C)(C)C)c2)c1`, the melting point fell in the range of 96 to 98 °C.

In turn, `COc1ccc(-c2nc(COCCc3cccc(NS(=O)(=O)C(F)(F)F)c3)cs2)cc1` gave a melting point of 112 to 113 °C.

The molecule `Cn1c(=S)ccn(C2OC(CO)C(O)C2O)c1=O` (centres undefined) gave a melting point of 146 to 148 °C.

`N#CCCNC(=O)c1cccc(-c2cccc3oc(Cc4ccc(F)c(Cl)c4)cc23)c1` had a melting point of 130 to 131 °C.

As for `COCOc1cc(C(=O)OC)[nH]n1`, the melting point was in the range of 54 to 55 °C.

Turning to `CS(=O)(=O)NCc1ccc(-n2c(-c3cccnc3N)nc3cc(-c4cccnc4)cnc32)cc1`, the melting point lay within 127 to 129 °C.

`Cn1ncc2c1-c1c(Sc3ccccc3)sc(C(=O)O)c1CC2` came in with a melting point of 205 to 206 °C.

`O=C(NCCCCCNC(=O)c1ccc(OC(F)(F)F)cc1)c1ccc(OC(F)(F)F)cc1`: the melting point fell in the range of 154 to 155 °C.

As for `COc1cc(OCc2ccccc2)ccc1S(=O)(=O)Cl`, the melting point is 95 °C.

On to `COC(=O)c1nc(C)c(-c2ccnc3ccccc23)s1`, for which the melting point was 116 to 117 °C.

The molecule `CC1=NN(C)c2nc(C)c(CCO)c(=O)n2C1` had a melting point of 140 °C.

In turn, `CN(Cc1nnc2n1-c1ccc(Cl)cc1C(c1ccccc1)=NC2)CC1CC1` yielded a melting point of 171 to 176 °C.

Turning to `COc1cc(OC)nc(-n2c(OC)nc3ccccc32)n1`, the melting point lay in the range of 121 to 122 °C.

The molecule `CC(=O)N(C)N(C)c1ccnc2c(NC(=O)c3c(Cl)cccc3Cl)cccc12` yielded a melting point of 243 to 244 °C.

`CCCCCCCC(=O)NC(=O)OCc1nc(C(C)C)c(Sc2cc(Cl)cc(Cl)c2)n1Cc1ccncc1` had a melting point of 139 to 141 °C.

`O=c1cc(-c2ccccc2F)oc2ccccc12` had a melting point of 98 to 100 °C.

`COCCC1(c2ccc(O)cc2)N=CC=N1` had a melting point of 173 to 176 °C.

`CC(=O)OC(C)(C(=O)O)c1ccc(-c2ccccc2)c(F)c1` (centres undefined) came in with a melting point of 125 to 127 °C.

As to `CCCCCn1cc(C(=O)O)c2ccc(Cl)cc21`, the melting point lay within 152 to 154 °C.

Turning to `CCCCCCCCCCCCCCCCCCC1CC(=O)N(c2ccc([N+](=O)[O-])cc2O)C1=O` (centres undefined), the melting point was 115 to 120 °C.

`COc1ccc(N2Cc3cnc(Nc4ccccc4)nc3N(C[C@@H](C)O)C2=O)cc1` came in with a melting point of 189 to 193 °C.

In turn, `Cc1nc(NC(=O)Nc2ccc(N3CCN(C(=O)Nc4cc(OCCO)ccc4Cl)CC3)nc2)sc1C` registered a melting point of 128 to 129 °C.

The molecule `CCOC(=O)c1cc(-n2c(=O)ccn(C)c2=O)ccc1Cl` yielded a melting point of 147 to 148 °C.

In turn, `N#CC(NCCc1cccs1)c1ccccc1Cl` (centres undefined) yielded a melting point of 40 to 41 °C.

`CC(=O)OC1CCC2(C)C3CCC4(C)C(C(C)=O)CCC4C3CC(Cl)C2(Cl)C1` (centres undefined) showed a melting point of 187 °C.

`COc1cc2c(O)c(S(=O)(=O)N(C)C)cnc2cc1C`: the melting point lay within 295 to 297 °C.

Molecule `COc1ccc2c(c1)C1=C(SCC3(CCNCC3)O1)C(=O)C2=O` had a melting point of 224 to 226 °C.

For `CC(C)(C)OC(=O)Nc1cc(N2CCC3(CC2)OCCO3)c(I)cc1[N+](=O)[O-]`, the melting point was in the range of 132 to 134 °C.

Consider `C#Cc1cc2cn[nH]c2c(C(=O)NC2(C3CC3)CC2)c1NC(=O)c1cc(C(F)(F)F)nn1-c1ncccc1Cl`, for which the melting point is 246 to 248 °C.

`CC(=O)OCC1OC(n2nnnc2Cl)C(OC(C)=O)C(OC(C)=O)C1OC(C)=O` (centres undefined): the melting point came to 172 °C.

Take `CC(C)(C)OC(=O)NCC1CN[C@@H]2CCO[C@H]12` (relative stereo): the melting point lay in the range of 59 to 67 °C.

The molecule `CC(C)Cc1csc(NC(=O)OC(C)(C)C)c1C(=O)O` showed a melting point of 154 to 155 °C.

In turn, `Cc1cc(Oc2cc(C(F)(F)F)nn2C)nc(-c2ccsc2)n1` displayed a melting point of 122 °C.

The molecule `CC(C)(C)c1ccc2[nH]c(=O)c(-c3nnn[nH]3)cc2c1` returned a melting point of 280 to 286 °C.

In turn, `Cc1c(C)c2c(c(C)c1N)OC(C)(C)C2=O` gave a melting point of 150 to 151 °C.

Regarding `COc1ccc(-n2c3ccccc3c3cc(C=C(C#N)c4cc(C(F)(F)F)cc(C(F)(F)F)c4)ccc32)cc1`, the melting point fell in the range of 198 to 200 °C.

Molecule `CCCCn1nc2c(N)nc3ncccc3c2c1CC(C)C` returned a melting point of 219 to 222 °C.

`NC(=O)c1c(Cl)cc(Cl)c(C(=O)O)c1Cl` had a melting point of 280 °C.

`NCc1cc(-c2ccccc2)no1` yielded a melting point of 50 °C.

As for `COC(=O)CCc1nc(CCc2ccc(CC(=O)OC)cc2)ccc1O`, the melting point was 90 to 91 °C.

Take `NC(=S)c1ncn(C2OC(COS(N)(=O)=O)C(O)C2O)n1` (centres undefined): the melting point was 173 to 175 °C.

Regarding `COCCOc1cc2ncc(C#N)c(NC3CCCC3)c2cc1OC`, the melting point was in the range of 87 to 90 °C.

As to `Cc1ccc(-c2c(N=[N+]=[N-])ncnc2OCCO)cc1`, the melting point fell in the range of 83.5 to 85 °C.

For `CCOC(=O)Cc1ccc(CC(=O)c2c(O)c3cccnc3n(-c3ccccc3)c2=O)cc1`, the melting point is 156 to 158 °C.

As for `Cc1ccc(Cn2ncc(-c3ccc(S(C)(=O)=O)cc3)c(-c3ccc(F)cc3)c2=O)s1`, the melting point was 172 to 175 °C.

The molecule `CSc1nc(OCC2COC(C)(C)O2)c2c(-c3ccccc3Cl)n[nH]c2n1` (centres undefined) showed a melting point of 120 to 122 °C.

`CCCCCC(=N)NC(=O)Nc1ccc(Cl)cc1` had a melting point of 175 to 179 °C.

In turn, `CCN(CC)C(=O)c1c(C(F)F)ccc(F)c1[Si](C)(C)C` registered a melting point of 65 to 67 °C.

Molecule `CC(C)CNC(=S)Nc1cc(Cl)cc(Cl)c1` came in with a melting point of 144 °C.

As for `CCOC(=O)CN1CCN(CCNc2ncc3ncnc(Nc4ccc(F)c(Cl)c4)c3n2)CC1`, the melting point fell in the range of 128 to 129 °C.

On to `CCOC(=O)COc1ccc2c(C)c(CCN(CC)CC)c(=O)oc2c1Br`, for which the melting point lay in the range of 150 to 151 °C.

As to `O=C(CC(c1ccccc1)c1ccccc1)NCO`, the melting point lay in the range of 149 to 151 °C.

`COc1cc(CN2CCc3cc(O)c(OC)cc3C2)cc(OC)c1` gave a melting point of 127 to 128 °C.

For `Cc1ccc(OCC2CO2)c([N+](=O)[O-])c1[N+](=O)[O-]` (centres undefined), the melting point lay in the range of 121 to 123 °C.

In the case of `Cc1cccc2c(-c3ccc(F)cc3)nccc12`, the melting point lay within 91 to 92 °C.

`COc1ccc(Cc2nc3c(cnn3C(CCCc3ccccc3)C(C)O)c(=O)[nH]2)cc1` (centres undefined) registered a melting point of 41 °C.

Consider `Sc1ncc(-c2ccc(Cl)cc2)[nH]1`, for which the melting point was determined as 308 °C.

As to `CCOC(=O)c1ccc(NC(=O)C=C(c2ccc(Br)cc2)c2ccc(Br)cc2)cc1`, the melting point was in the range of 207 to 208 °C.

Molecule `O=C(Nc1ccc(C(F)(F)F)cc1)OCC1(COC(=O)Nc2ccc(C(F)(F)F)cc2)CSc2ccccc2C1=O` registered a melting point of 76 to 82 °C.

Take `COc1ccc(S(=O)(=O)C2(C(=O)O)CCN(Cc3ccc(-c4ccccc4)cc3)CC2)cc1`: the melting point worked out at 168 °C.

Molecule `O=c1[nH]c2ccccc2n1Cc1cccnc1` gave a melting point of 160 °C.

`Brc1c[nH]c2ccc(Nc3ncnc4cc(-c5ccccc5)sc34)cc12` returned a melting point of 201 to 203 °C.

`CCCCCCCCNC(=O)c1cc(C(C)(C)C)c(O)c(C(C)(C)C)c1`: the melting point lay in the range of 133 to 135 °C.

In the case of `COC(CCCNC(=O)c1ccc2c(c1)C(=O)N(CCCC(OC)OC)C2=O)OC`, the melting point was found to be 102 °C.

With `COc1ccccc1C1(O)C(O)CCC2CNCC21` (centres undefined), the melting point amounted to 168 °C.

The molecule `O=[N+]([O-])c1cnc2ccc(Cl)cc2c1Nc1ccccc1` registered a melting point of 174 to 175 °C.

`C#CCNC(=O)c1cc(C(=O)OC)c(O)c2ncc(Cc3ccc(F)cc3)cc12` registered a melting point of 192 to 193 °C.

In the case of `Cn1ccnc1C(O)(c1ccccc1)c1ccc(Cl)cc1` (centres undefined), the melting point fell in the range of 185 to 186 °C.

As to `O=S1(=O)N(CCCN2CC=C(c3c[nH]c4ccc(F)cc34)CC2)c2cccc3c2N1CCC3`, the melting point came to 178 °C.

`Cc1ccc(-c2cc(Cl)c3ccccc3n2)cc1Cl` returned a melting point of 115 to 116 °C.

(Values after a melting point compilation (Tetko et al.; mined from patent text by program, amines drawn as free bases though some values may be those of a salt).)
